Patent US12358863B2, “Nitrogen-containing derivative of substituted phenol hydroxy acid ester, and preparation and use thereof” (priority 2019, dated 2025)
Like-named read-outs stand apart in the source and are kept apart here.

Columns and labels:
[1] = Decomposition of prodrugs in mouse plasma in vitro (HPLC of released propofol or other substituted phenol); assay type: in vitro ADME; conditions: 37° C.
Experimental: The prodrug to be tested was prepared into a saline solution of 10 mg/mL. 10 μL of drug-containing solution was added to 990 μL of mouse plasma, vortexed for 30 s, and then incubated at 37° C. At 30 s, 1 min, 5 min, 10 min, 30 min, 60 min and 120 min, 50 μL of drug-containing plasma was collected, to which was immediately added 150 μL of acetonitrile to terminate the enzymatic reaction, and then centrifuged at 20000 rpm and 4° C. for 10 min. 50 μL of supernatant was taken out and injected into HPLC, to determine the concentration of propofol by internal standard method. The decomposition rate of the prodrug was calculated from the concentrations of propofol or other substituted phenols. Chromatographic conditions: Agilent Zorbax XdB C18 column (150 mm)×4.6 mm, 5 μm); column temperature 30° C.; the mobile phase, water:acetonitrile (40:60, v/v); fluorescence wavelength: excitation wavelength (Ex) at 276 nm, emission wavelength (EM) at 310 nm; flow rate: 1.2 mL/min; retention time: internal standard (thymol) 3.9 min, propofol 7.4 min. Linear range of propofol or other substituted phenols: 50-35000 ng/mL. Instruments: Waters 2695 high performance liquid chromatograph, Waters 2475 fluorescence detector.

Kunming mice [2] = assay type: in vivo, mouse
Experimental: For each drug, 10 male Kunming mice weighing 20-35 g were included, and the dose of each drug was 2×ED50 in mice. After the compound of the present invention and fospropofol were respectively dissolved in saline, the resultant solutions were injected via the mouse tail vein. For propofol, a glucose dilution (5 mg/mL) of a commercially available emulsion of diprivan was selected and injected via the mouse tail vein; while, for another substituted phenol molecule (CAS:1637741-58-2), its 30% fat emulsion was prepared as a medicated emulsion. The concentration of the injectable solution of the compound according to the present invention was 10-15 mg/mL, and the concentration of the injectable solution of fospropofol was 55 mg/mL, while the concentration of the injectable solution of another substituted phenol molecule (CAS:1637741-58-2) was 1 mg/mL. After injection of tested drug, the occurrence time T1 of righting reflex after its disappearance, the duration T2 for the disappearance of righting reflex (i.e. anesthesia time) and the time T3 required for the animal to recover completely after waking up were recorded. Complete recovery refers to the recovery of autonomous activities of animals to the level before administration. In the experiment, animals were not given respiratory support such as oxygen inhalation or intubation.

Kunming mice [3] = experiment: Determination of therapeutic index (ED50 and LD50, up-and-down method); assay type: in vivo, mouse; conditions: half male and half female
Experimental: Determination of therapeutic index (TI) of prodrug molecules: by referring the method in literature (Dixon, W. Staircase bioassay: the up-and-down method. Neurosci. Biobehav. Rev. 1991, 15, 47-50), the half-effective dose (ED50) and half-lethal dose (LD50) of the molecule to be tested were determined in Kunming mice (weighing 25-30 g, half male and half female). The therapeutic index for each molecule was calculated according to the equation: TI=LD50/ED50.

[4] = Table 3, dose 2×ED50, tail vein injection, male Kunming mice

Compound	Decomposition rates of prodrugs ([1]; 30 s)	Decomposition rates of prodrugs ([1]; 1 min)	Decomposition rates of prodrugs ([1]; 5 min)	Decomposition rates of prodrugs ([1]; 10 min)	Decomposition rates of prodrugs ([1]; 30 min)	Decomposition rates of prodrugs ([1]; 60 min)	Decomposition rates of prodrugs ([1]; 120 min)	T1: the onset time after injection (Kunming mice [2]; [4])	T2: the duration of disappearance of righting reflex (Kunming mice [2]; [4])	T3: the time required for righting reflex to recover to autonomous activity (Kunming mice [2]; [4])	TI (therapeutic index) (Kunming mice [3])	T1: the onset time after injection (Kunming mice [2]; mouse, in vivo)	T2: the duration of disappearance of righting reflex (Kunming mice [2]; mouse, in vivo)
CC(C)c1cccc(C(C)C)c1OC(=O)COC(=O)CN1CCC1.Cl [Compound 37]	75%	92%	100%	100%	100%	100%	100%	Immediate	4 to 10 min	1 to 2 min	3.9		
CC(C)C[C@@H](N)C(=O)OCC(=O)Oc1c(C(C)C)cccc1C(C)C.Cl [Compound 48]	92%	100%	100%	100%	100%	100%	100%	Immediate	6 to 14 min	1 to 2 min	4.1		
CC(C)c1cccc(C(C)C)c1OC(=O)COC(=O)CN1CCOCC1 [Compound 27]	60%	65%	79%	86%	100%	100%	100%	Immediate	4 to 12 min	1 to 2 min	4.5		
CC(C)c1cccc(C(C)C)c1OC(=O)COC(=O)CN1CCCC1.Cl [Compound 42]	91%	100%	100%	100%	100%	100%	100%	Immediate	6 to 12 min	1 to 2 min	3.7		
CC(C)c1cccc(C(C)C)c1OC(=O)COC(=O)[C@@H](C)N(C)C.Cl [Compound 41]	89%	100%	100%	100%	100%	100%	100%	Immediate	5 to 13 min	1 to 2 min	3.8		
CC(C)c1cccc(C(C)C)c1OC(=O)COC(=O)CN1CCN(C)CC1 [Compound 7]	91%	100%	100%	100%	100%	100%	100%			1 to 2 min	3.9	Immediate	6 to 13 min
